Experimental data as given in patent US7005418B1, “Method for the therapeutic management of extrauterine proliferation of endometrial tissue, chronic pelvic pain and fallopian tube obstruction” (Zentaris GmbH, priority 1999, dated 2006).
Non-standard residues stand in square brackets, D forms with d. Residues, ends and D or L forms follow the SMILES beside them. dPhe(4-Cl) = N[C@H](Cc1ccc(Cl)cc1)C(=O)O; d2Nal = N[C@H](Cc1ccc2ccccc2c1)C(=O)O; dCit = NC(=O)NCCC[C@@H](N)C(=O)O; d3Pal = N[C@H](Cc1cccnc1)C(=O)O

Tests used:
[1] = test system: patients with confirmed endometriosis; assay: Weekly s.c. LHRH-antagonist treatment for 8 weeks in patients with endometriosis: clinical outcome and tolerability (2nd look laparascopy, histological biopsies); format: in vivo, human (patients); conditions: for hot flushes or other (estradiol) withdrawal symptoms / proliferation of the endometrium at the end of treatment (histological biopsies): patients with endometriosis, 3 mg weekly for 8 weeks
Description: (§1) The weekly administration of an adequate dose of an LHRH antagonist, e.g. 3 mg Cetrotide® s.c./ per week over a period of eight weeks leads to a controlled suppression of estrogen secretion so that serum concentrations between about 35 pg/ml and about 80 pg/ml, preferably between about 45–75 pg/ml, more preferably between about 50–75 pg/ml are obtained. […] Also the development of osteoporosis can be avoided.

estradiol secretion = assay: Weekly s.c. LHRH-antagonist treatment for 8 weeks in patients with endometriosis: estradiol serum levels; format: in vivo, human (patients); conditions: weekly dose of 1 mg resp. 3 mg once per week
Description: 3 mg once per week. The estradiol serum levels are between about 35–80 pg/ml, preferably between about 45–75 pg/ml, more preferably between about 50–75 pg/ml.
as §1

[2] = nine patients with confirmed endometriosis, 3 mg s.c. weekly for 8 weeks

Structure (SMILES)	ovarian cyst formation [1, 2]	progress of the disease, confirmed by 2nd look laparascopy [1, 2]	hot flushes or other (estradiol) withdrawal symptoms [1]	proliferation of the endometrium at the end of treatment (histological biopsies) [1]	estradiol serum levels (FIG. 2) (estradiol secretion)
CC(=O)N[C@H](Cc1ccc2ccccc2c1)C(=O)N[C@H](Cc1ccc(Cl)cc1)C(=O)N[C@H](Cc1cccnc1)C(=O)N[C@@H](CO)C(=O)N[C@@H](Cc1ccc(O)cc1)C(=O)N[C@H](CCCNC(N)=O)C(=O)N[C@@H](CC(C)C)C(=O)N[C@@H](CCCNC(=N)N)C(=O)N1CCC[C@H]1C(=O)N[C@H](C)C(N)=O [Cetrorelix acetate] (Ac-[d2Nal][dPhe(4-Cl)][d3Pal]SY[dCit]LRP[dA]-NH2)	No ovarian cyst formation occurred	without any progress of the disease	avoiding any hot flushes or other withdrawal symptoms	no proliferation of the endometrium	–
CC(=O)N[C@H](Cc1ccc2ccccc2c1)C(=O)N[C@H](Cc1ccc(Cl)cc1)C(=O)N[C@H](Cc1cccnc1)C(=O)N[C@@H](CO)C(=O)N[C@@H](Cc1ccc(O)cc1)C(=O)N[C@H](CCCNC(N)=O)C(=O)N[C@@H](CC(C)C)C(=O)N[C@@H](CCCNC(=N)N)C(=O)N1CCC[C@H]1C(=O)N[C@H](C)C(N)=O [Cetrorelix] (Ac-[d2Nal][dPhe(4-Cl)][d3Pal]SY[dCit]LRP[dA]-NH2)	–	–	without any signs of estradiol withdrawal symptoms	without proliferation of the endometrium	35 to 80 pg/mL
